For seven compounds, Kd results are on record in ChEMBL document CHEMBL3991601, “The target landscape of clinical kinase drugs” (Science, 2017).

Calls of active or inactive are those of the source. For most assays here, no stated cut-off is given here; in the data, actives have a measured Kd and inactives only a lower limit. Where only a bound is given, the exact number is not on record here.

In assay [1] the target is Interleukin-1 receptor-associated kinase 1 (Homo sapiens, UniProt P51617).
For a further assay, the target named is T1, Ephrin type-B receptor 6 (Homo sapiens, UniProt O15197).
T1 sequence (O15197 whole entry): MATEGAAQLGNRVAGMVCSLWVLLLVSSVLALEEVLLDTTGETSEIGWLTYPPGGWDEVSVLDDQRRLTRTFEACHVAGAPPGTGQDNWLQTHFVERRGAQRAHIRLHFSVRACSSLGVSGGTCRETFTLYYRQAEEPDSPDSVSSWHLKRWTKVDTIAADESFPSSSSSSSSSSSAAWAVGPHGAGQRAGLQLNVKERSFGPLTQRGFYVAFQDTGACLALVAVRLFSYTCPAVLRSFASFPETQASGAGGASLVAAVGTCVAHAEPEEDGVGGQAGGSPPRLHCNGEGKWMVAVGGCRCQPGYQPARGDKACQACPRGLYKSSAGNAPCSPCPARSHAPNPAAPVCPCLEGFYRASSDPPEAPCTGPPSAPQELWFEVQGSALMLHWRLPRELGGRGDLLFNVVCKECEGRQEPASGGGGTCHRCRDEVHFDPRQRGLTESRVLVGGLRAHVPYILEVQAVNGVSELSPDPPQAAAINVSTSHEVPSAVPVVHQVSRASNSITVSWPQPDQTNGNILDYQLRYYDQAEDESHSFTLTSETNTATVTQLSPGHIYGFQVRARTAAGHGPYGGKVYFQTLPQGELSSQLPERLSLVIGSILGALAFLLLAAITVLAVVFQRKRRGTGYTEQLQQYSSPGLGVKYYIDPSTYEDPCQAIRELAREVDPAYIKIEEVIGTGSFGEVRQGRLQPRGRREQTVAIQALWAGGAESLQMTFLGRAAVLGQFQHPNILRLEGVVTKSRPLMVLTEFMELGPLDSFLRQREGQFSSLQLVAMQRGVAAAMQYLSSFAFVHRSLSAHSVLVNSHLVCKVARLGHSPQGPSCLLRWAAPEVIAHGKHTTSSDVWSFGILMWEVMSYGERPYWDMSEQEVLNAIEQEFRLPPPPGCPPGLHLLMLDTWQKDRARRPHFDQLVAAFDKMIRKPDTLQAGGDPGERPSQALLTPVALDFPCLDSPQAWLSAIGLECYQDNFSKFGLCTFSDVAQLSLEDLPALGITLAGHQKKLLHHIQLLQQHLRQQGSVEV

In assay [2] the target is T2, Electron transfer flavoprotein subunit beta (Homo sapiens, UniProt P38117).
T2 sequence (P38117 whole entry): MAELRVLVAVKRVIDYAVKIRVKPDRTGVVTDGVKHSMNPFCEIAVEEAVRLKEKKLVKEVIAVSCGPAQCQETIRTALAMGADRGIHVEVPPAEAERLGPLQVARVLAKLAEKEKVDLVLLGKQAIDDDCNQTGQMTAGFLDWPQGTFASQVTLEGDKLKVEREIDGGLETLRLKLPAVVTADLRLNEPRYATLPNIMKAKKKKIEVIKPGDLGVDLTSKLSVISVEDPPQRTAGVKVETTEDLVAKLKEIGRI

The target of another assay is Ephrin type-A receptor 5 (Homo sapiens, UniProt P54756).
Assay [3] addresses BMP-2-inducible protein kinase (Homo sapiens, UniProt Q9NSY1).
Assay [4] addresses RAC-alpha serine/threonine-protein kinase (Homo sapiens, UniProt P31749).
Assay [5] deals with Dual specificity protein kinase CLK1 (Homo sapiens, UniProt P49759).
Assay [6] concerns the target DnaJ homolog subfamily A member 1 (Homo sapiens, UniProt P31689).
Assay [7] concerns the target MAP kinase-activated protein kinase 2 (Homo sapiens, UniProt P49137).
Assay [8] concerns the target Serine/threonine-protein kinase 10 (Homo sapiens, UniProt O94804).
In assay [9] the target is T3, Dual specificity mitogen-activated protein kinase kinase 3 (Homo sapiens, UniProt P46734).
T3 sequence (P46734 whole entry): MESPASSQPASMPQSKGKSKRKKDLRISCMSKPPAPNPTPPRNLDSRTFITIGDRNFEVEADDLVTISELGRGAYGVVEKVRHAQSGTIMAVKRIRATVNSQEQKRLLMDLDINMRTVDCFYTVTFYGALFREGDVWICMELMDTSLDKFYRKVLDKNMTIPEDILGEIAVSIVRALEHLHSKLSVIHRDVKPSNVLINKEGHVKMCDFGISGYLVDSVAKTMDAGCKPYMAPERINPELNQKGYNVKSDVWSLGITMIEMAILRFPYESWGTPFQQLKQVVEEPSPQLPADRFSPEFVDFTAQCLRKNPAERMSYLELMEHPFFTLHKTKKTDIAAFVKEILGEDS

Assay [10] addresses Ribosomal protein S6 kinase alpha-6 (Homo sapiens, UniProt Q9UK32).
In assay [11] the target is Glycogen synthase kinase-3 alpha (Homo sapiens, UniProt P49840).
The target of assay [12] is T4, Membrane-associated tyrosine- and threonine-specific cdc2-inhibitory kinase (Homo sapiens, UniProt Q99640).
T4 sequence (Q99640 whole entry): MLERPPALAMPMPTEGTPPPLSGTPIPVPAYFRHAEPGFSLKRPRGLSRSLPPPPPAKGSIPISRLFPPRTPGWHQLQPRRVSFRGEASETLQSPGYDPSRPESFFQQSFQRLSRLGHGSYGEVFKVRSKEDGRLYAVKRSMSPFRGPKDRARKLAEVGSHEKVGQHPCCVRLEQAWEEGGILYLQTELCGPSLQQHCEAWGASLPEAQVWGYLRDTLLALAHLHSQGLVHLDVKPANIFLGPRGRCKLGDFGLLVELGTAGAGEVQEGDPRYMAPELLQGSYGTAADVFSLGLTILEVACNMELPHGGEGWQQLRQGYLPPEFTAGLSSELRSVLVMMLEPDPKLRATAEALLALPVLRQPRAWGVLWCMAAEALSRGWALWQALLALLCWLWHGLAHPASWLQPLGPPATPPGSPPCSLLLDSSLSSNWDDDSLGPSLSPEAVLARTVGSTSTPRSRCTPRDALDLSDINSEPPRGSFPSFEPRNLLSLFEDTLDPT

Assay [13] has as its target Atypical kinase COQ8A, mitochondrial (Homo sapiens, UniProt Q8NI60).
In assay [14] the target is Dual specificity mitogen-activated protein kinase kinase 2 (Homo sapiens, UniProt P36507).
Chain of Dual specificity mitogen-activated protein kinase kinase 2 (P36507 whole entry): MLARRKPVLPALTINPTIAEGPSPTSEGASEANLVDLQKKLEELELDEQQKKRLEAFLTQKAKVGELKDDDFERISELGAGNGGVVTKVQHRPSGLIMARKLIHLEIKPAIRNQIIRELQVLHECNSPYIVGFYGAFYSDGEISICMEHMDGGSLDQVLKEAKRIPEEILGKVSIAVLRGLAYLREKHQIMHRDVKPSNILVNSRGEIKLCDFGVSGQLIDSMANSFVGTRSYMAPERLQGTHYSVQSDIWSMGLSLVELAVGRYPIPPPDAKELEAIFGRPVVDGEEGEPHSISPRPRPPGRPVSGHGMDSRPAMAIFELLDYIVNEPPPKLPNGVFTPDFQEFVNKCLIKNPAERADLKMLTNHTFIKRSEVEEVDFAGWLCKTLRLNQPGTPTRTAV

Chain of MAP kinase-activated protein kinase 2 (P49137 whole entry): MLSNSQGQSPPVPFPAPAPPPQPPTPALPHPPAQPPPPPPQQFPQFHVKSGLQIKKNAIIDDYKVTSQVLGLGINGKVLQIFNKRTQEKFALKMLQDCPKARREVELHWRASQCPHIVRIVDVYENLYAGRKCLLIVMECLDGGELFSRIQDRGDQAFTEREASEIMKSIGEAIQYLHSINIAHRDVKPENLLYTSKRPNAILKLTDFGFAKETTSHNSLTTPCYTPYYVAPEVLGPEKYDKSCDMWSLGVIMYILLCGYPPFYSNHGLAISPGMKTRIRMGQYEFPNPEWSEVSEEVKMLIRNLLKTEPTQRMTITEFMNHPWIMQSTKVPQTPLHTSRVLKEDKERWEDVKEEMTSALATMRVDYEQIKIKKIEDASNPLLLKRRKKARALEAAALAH
Chain of RAC-alpha serine/threonine-protein kinase (P31749 whole entry): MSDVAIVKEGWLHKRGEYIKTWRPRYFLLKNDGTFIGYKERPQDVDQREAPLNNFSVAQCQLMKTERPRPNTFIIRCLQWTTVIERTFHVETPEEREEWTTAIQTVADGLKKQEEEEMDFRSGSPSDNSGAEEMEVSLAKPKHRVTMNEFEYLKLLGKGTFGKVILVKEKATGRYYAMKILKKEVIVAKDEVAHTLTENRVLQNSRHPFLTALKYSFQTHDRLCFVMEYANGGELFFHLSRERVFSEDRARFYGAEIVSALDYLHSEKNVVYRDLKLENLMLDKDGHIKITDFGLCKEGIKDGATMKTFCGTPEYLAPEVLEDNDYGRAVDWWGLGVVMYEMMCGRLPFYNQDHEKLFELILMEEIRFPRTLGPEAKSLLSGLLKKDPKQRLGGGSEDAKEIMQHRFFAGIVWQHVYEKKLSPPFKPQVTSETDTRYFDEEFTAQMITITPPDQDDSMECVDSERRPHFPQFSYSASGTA
Chain of BMP-2-inducible protein kinase (Q9NSY1 whole entry): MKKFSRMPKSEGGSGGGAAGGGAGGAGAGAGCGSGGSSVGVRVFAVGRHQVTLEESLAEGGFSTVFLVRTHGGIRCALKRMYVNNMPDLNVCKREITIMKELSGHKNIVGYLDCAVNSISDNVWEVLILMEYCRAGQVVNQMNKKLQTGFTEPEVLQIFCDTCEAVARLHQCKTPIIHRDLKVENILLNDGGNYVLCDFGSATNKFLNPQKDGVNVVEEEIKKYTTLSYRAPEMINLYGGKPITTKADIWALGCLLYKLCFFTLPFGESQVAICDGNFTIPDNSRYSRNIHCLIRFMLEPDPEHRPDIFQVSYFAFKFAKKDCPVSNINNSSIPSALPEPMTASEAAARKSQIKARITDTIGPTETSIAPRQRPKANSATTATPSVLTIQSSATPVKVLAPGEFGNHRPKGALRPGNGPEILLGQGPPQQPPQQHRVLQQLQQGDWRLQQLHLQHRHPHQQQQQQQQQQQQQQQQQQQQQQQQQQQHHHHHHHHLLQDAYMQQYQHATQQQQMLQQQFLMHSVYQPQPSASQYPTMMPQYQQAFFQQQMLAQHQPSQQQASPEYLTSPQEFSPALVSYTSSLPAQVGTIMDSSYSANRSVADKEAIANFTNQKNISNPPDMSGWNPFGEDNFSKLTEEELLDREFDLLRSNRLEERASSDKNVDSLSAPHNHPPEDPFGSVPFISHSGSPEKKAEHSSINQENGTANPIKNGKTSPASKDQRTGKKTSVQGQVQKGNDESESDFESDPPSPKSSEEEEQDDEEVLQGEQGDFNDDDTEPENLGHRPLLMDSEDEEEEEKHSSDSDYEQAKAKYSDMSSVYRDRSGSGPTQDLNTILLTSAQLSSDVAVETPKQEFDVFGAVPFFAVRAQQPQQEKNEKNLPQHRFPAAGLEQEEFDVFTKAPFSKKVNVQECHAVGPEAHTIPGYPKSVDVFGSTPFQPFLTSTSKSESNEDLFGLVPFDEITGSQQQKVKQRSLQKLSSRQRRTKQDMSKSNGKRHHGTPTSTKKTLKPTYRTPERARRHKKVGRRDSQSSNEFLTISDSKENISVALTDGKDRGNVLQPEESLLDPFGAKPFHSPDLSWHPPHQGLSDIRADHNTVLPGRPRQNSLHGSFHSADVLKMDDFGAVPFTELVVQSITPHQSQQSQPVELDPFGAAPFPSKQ
Chain of Ribosomal protein S6 kinase alpha-6 (Q9UK32 whole entry): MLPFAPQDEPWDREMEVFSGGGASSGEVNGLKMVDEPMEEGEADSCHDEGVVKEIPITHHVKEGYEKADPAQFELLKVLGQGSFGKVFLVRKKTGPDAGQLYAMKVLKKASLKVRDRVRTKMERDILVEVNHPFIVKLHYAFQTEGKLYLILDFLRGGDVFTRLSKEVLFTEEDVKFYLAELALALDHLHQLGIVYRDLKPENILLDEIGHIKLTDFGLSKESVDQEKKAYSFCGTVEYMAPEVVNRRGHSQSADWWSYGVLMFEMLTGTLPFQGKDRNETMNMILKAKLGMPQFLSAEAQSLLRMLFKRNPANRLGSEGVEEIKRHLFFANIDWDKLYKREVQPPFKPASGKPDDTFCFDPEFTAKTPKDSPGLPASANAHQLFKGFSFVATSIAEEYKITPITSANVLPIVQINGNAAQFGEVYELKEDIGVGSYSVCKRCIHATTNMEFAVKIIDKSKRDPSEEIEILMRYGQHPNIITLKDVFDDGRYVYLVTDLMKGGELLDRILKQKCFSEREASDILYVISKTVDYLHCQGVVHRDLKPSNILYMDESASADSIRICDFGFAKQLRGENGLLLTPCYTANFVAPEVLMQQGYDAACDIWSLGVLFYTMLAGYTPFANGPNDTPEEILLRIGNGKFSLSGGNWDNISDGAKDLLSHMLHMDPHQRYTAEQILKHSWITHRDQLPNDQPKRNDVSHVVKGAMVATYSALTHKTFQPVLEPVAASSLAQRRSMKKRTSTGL
Chain of Glycogen synthase kinase-3 alpha (P49840 whole entry): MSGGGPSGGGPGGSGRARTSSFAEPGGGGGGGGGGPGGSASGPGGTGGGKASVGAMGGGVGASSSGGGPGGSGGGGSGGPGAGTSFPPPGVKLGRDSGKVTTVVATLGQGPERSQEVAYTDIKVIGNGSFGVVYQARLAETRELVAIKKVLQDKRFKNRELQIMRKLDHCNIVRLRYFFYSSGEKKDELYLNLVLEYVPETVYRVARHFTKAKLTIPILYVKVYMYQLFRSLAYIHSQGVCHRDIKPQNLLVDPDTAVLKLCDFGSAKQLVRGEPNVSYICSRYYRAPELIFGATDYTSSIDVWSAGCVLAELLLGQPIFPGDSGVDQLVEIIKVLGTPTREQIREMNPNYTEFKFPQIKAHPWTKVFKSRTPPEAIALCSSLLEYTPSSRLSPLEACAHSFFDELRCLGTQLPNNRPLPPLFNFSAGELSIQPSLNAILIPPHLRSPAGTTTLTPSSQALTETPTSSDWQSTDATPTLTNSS
Chain of Serine/threonine-protein kinase 10 (O94804 whole entry): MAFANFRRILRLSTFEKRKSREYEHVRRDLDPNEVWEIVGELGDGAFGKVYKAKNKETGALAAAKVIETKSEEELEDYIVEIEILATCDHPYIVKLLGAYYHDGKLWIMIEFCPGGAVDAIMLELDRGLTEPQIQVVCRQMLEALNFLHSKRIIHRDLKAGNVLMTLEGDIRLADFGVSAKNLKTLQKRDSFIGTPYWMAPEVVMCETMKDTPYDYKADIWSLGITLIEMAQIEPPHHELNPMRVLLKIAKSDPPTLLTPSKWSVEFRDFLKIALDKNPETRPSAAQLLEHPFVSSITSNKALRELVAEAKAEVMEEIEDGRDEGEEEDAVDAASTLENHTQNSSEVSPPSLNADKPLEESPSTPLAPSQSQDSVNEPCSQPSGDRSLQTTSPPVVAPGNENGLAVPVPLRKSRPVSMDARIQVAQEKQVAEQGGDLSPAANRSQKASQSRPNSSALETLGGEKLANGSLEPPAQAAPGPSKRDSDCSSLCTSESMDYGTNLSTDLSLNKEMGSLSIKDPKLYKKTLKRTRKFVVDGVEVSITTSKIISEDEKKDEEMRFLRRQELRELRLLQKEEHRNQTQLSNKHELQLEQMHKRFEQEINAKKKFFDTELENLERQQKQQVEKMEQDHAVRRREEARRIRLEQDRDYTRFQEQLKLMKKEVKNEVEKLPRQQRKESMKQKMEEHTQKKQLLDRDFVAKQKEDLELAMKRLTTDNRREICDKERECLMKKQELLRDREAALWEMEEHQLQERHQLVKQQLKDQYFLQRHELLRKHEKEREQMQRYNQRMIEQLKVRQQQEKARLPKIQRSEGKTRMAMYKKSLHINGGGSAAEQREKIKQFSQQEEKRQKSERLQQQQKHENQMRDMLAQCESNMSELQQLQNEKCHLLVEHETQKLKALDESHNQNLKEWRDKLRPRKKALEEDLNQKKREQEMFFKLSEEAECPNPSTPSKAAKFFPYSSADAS
Chain of DnaJ homolog subfamily A member 1 (P31689 whole entry): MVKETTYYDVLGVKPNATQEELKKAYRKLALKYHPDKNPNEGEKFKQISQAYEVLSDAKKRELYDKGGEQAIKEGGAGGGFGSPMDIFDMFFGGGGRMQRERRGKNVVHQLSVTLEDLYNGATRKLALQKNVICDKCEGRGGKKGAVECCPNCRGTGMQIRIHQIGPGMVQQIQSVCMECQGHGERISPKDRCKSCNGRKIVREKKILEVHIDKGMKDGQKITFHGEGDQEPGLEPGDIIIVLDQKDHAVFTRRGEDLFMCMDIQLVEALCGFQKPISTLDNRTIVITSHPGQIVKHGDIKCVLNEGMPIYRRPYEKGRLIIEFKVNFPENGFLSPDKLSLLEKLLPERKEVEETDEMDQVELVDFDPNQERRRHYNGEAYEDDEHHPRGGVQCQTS

Consider `Cc1cc2c(F)c(Oc3ncnn4cc(OC[C@@H](C)OC(=O)[C@H](C)N)c(C)c34)ccc2[nH]1` [BRIVANIB ALANINATE], for which the Kd (in [1]; on Ephrin type-B receptor 6; in [2]; at Ephrin type-A receptor 5; in [3]; in assay [4]) was > 30 µM (inactive) each time. Also, the Kd in assay [5] is > 30 µM (inactive); in [6], > 30 µM (inactive); in [7] it was > 30 µM (inactive); in [8] it was 8.44 µM (active); in assay [9] it was > 30 µM (inactive); in assay [10], > 30 µM (inactive). For the same compound, the Kd in [11], in assay [12], in assay [13] and in assay [14] was > 30 µM (inactive) in each case.

For the compound `CN1CCC(CNc2ccc3ncc(-c4cccc(OC(F)(F)F)c4)n3n2)CC1` [SGI-1776], the Kd in [1] is > 30 µM (inactive); at Ephrin type-B receptor 6, > 30 µM (inactive); in [2] it was > 30 µM (inactive); at Ephrin type-A receptor 5, > 30 µM (inactive); in assay [3] it was 8.53 µM (active); in [4] it was > 30 µM (inactive). Further, the Kd was > 30 µM (inactive) in assay [5]; > 30 µM (inactive) in [6]; > 30 µM (inactive) in assay [7]; 2.16 µM (active) in assay [8]; > 30 µM (inactive) in assay [9]; 23.8 µM (active) in assay [10]. Also, the Kd in assay [11], in assay [12], in assay [13] and in [14] was > 30 µM (inactive) each time.

For `CC[C@H](Nc1ncnc2[nH]cnc12)c1nc2cccc(F)c2c(=O)n1-c1ccccc1` [IDELALISIB], the Kd (in [1]; at Ephrin type-B receptor 6; in assay [2]; at Ephrin type-A receptor 5; in [3]; in assay [4]) was > 30 µM (inactive) each time. Further, the Kd in assay [5], in assay [6], in [7], in [8], in assay [9] and in [10] was > 30 µM (inactive) throughout. Besides, the Kd in [11], in assay [12], in [13] and in [14] was > 30 µM (inactive) throughout.

Regarding `COC(=O)N[C@@H](C)CNc1nccc(-c2cn(C(C)C)nc2-c2cc(Cl)cc(NS(C)(=O)=O)c2F)n1` [ENCORAFENIB], the Kd in [1] is 0.247 µM (active); on Ephrin type-B receptor 6, > 30 µM (inactive); in assay [2] it was > 30 µM (inactive); on Ephrin type-A receptor 5, > 30 µM (inactive); in assay [3], > 30 µM (inactive); in [4] it was > 30 µM (inactive). The Kd in assay [5] was > 30 µM (inactive); in assay [6], > 30 µM (inactive); in assay [7] it was 14.7 µM (active); in assay [8], > 30 µM (inactive); in assay [9], > 30 µM (inactive); in [10] it was > 30 µM (inactive). Also, the Kd was 5.26 µM (active) in assay [11], > 30 µM (inactive) in [12], > 30 µM (inactive) in [13] and > 30 µM (inactive) in [14].

`O=c1sn(-c2cccc3ccccc23)c(=O)n1Cc1ccccc1` [TIDEGLUSIB]: the Kd (in assay [1]; on Ephrin type-B receptor 6; in assay [2]; at Ephrin type-A receptor 5; in assay [3]; in assay [4]) was > 30 µM (inactive) in each case. In addition, the Kd in assay [5], in [6], in [7], in assay [8], in [9] and in [10] was > 30 µM (inactive) in each case. Also, the Kd in [11], in assay [12], in assay [13] and in [14] was > 30 µM (inactive) in each case.

`O=C(c1ccc(F)c(F)c1Nc1ccc(I)cc1F)N1CC(O)([C@@H]2CCCCN2)C1` [COBIMETINIB]: the Kd (in [1]; on Ephrin type-B receptor 6; in [2]; on Ephrin type-A receptor 5; in assay [3]; in [4]) was > 30 µM (inactive) each time. The Kd in assay [5], in assay [6], in assay [7], in assay [8], in assay [9] and in assay [10] was > 30 µM (inactive) in each case. Also, the Kd was > 30 µM (inactive) in assay [11], > 30 µM (inactive) in [12], > 30 µM (inactive) in assay [13] and 0.022 µM (active) in assay [14].

On to `CN(C)C(=O)c1cc2cnc(Nc3ccc(N4CCNCC4)cn3)nc2n1C1CCCC1` [RIBOCICLIB], for which the Kd (in [1]; on Ephrin type-B receptor 6; in assay [2]; at Ephrin type-A receptor 5; in assay [3]; in assay [4]) was > 30 µM (inactive) in each case. In addition, the Kd in assay [5], in assay [6], in assay [7], in assay [8], in [9] and in [10] was > 30 µM (inactive) throughout. Moreover, the Kd in assay [11], in assay [12], in assay [13] and in assay [14] was > 30 µM (inactive) each time.

Usually Kd stands for a measure of binding affinity in units of concentration.
